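Values below derive from 48-hour exposures of cells grown in 96-well plates, with endpoints linearly interpolated between the two concentrations bracketing the appropriate inhibition level. GI50 marks 50% less growth.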 Calls of active or inactive are those of the source. Cut-off read from the data, not from the text of the source: active = GI50 up to about 1.1 µM and inactive = higher.
Columns and labels:
Experiment in all cases: DTP human tumour cell line panel, 48 h
[1] = test system: CCRF-CEM
[2] = test system: HT-29
[3] = test system: EKVX
[4] = test system: Malme-3M
[5] = test system: RXF 393
[6] = test system: RPMI-8226
[7] = test system: SK-OV-3
[8] = test system: NCI-H522
[9] = test system: HOP-62
[10] = test system: U-251
[11] = test system: HCT-15
[12] = test system: SNB-75
[13] = test system: SNB-19
[14] = test system: Hs-578T
[15] = test system: PC-3
[16] = test system: SK-MEL-5
[17] = test system: CAKI-1
[18] = test system: HCC 2998
[19] = test system: SN12C
[20] = test system: UACC-257

SMILES	GI50 [1]	GI50 [2]	GI50 [3]	GI50 [4]	GI50 [5]	GI50 [6]	GI50 [7]	GI50 [8]	GI50 [9]	GI50 [10]	GI50 [11] [µM]	GI50 [12]	GI50 [13]	GI50 [14]	GI50 [15]	GI50 [16]	GI50 [17]	GI50 [18]	GI50 [19]	GI50 [20]
COP(=O)(Cc1ccc(/C=C/C#N)o1)OC	> 100 µM (inactive)	> 100 µM (inactive)	> 100 µM (inactive)	47.2 µM (inactive)	> 100 µM (inactive)	> 100 µM (inactive)	> 100 µM (inactive)	> 100 µM (inactive)	> 100 µM (inactive)	> 100 µM (inactive)	> 100	> 100 µM (inactive)	> 100 µM (inactive)	62.2 µM (inactive)	–	–	–	–	–	–
Cc1ccc(/N=N/C(=NNC(=O)c2ccc(C)cc2)c2ccc(N(C)C)cc2)cc1	–	31.1 µM (inactive)	30.1 µM (inactive)	–	–	22.3 µM (inactive)	23.7 µM (inactive)	20.9 µM (inactive)	–	34.4 µM (inactive)	28.7	–	24.8 µM (inactive)	28.1 µM (inactive)	42.6 µM (inactive)	15.5 µM (inactive)	23 µM (inactive)	27.4 µM (inactive)	23.2 µM (inactive)	21.9 µM (inactive)
COc1cc(/C=N\NC(=O)C[N+](C)(C)C)cc(OC)c1OC	> 10 µM (inactive)	> 10 µM (inactive)	–	> 10 µM (inactive)	–	> 10 µM (inactive)	> 10 µM (inactive)	> 10 µM (inactive)	> 10 µM (inactive)	> 10 µM (inactive)	> 10	> 10 µM (inactive)	> 10 µM (inactive)	> 10 µM (inactive)	> 10 µM (inactive)	> 10 µM (inactive)	> 10 µM (inactive)	> 10 µM (inactive)	> 10 µM (inactive)	> 10 µM (inactive)
COc1ccc(/C=N/n2c(C)n[nH]c2=O)cc1	> 100 µM (inactive)	> 100 µM (inactive)	85.7 µM (inactive)	> 100 µM (inactive)	–	> 100 µM (inactive)	> 100 µM (inactive)	–	> 100 µM (inactive)	> 100 µM (inactive)	> 100	> 100 µM (inactive)	> 100 µM (inactive)	–	> 100 µM (inactive)	–	> 100 µM (inactive)	> 100 µM (inactive)	> 100 µM (inactive)	> 100 µM (inactive)
O=C1CSC(c2cccc(Cl)c2)N1c1ccc(-n2c(-c3ccccc3)nc3ccccc3c2=O)cc1 (configuration not stated)	40 µM (inactive)	97.7 µM (inactive)	> 100 µM (inactive)	> 100 µM (inactive)	–	52.4 µM (inactive)	88.7 µM (inactive)	43.3 µM (inactive)	> 100 µM (inactive)	29 µM (inactive)	15.8	–	> 100 µM (inactive)	39.3 µM (inactive)	51.3 µM (inactive)	47 µM (inactive)	45.3 µM (inactive)	43.7 µM (inactive)	> 100 µM (inactive)	> 100 µM (inactive)
CC(C)(C)c1cc(COc2cc(COc3ccc(-c4c5c(nc6c4CCc4ccc(-c7c8ccccc8nc8ccccc78)cc4-6)-c4cc(-c6c7ccccc7nc7ccccc67)ccc4CC5)cc3)cc(OCc3cc(C(C)(C)C)cc(C(C)(C)C)c3)c2)cc(C(C)(C)C)c1	–	–	> 100 µM (inactive)	89.3 µM (inactive)	–	> 100 µM (inactive)	> 100 µM (inactive)	> 100 µM (inactive)	> 100 µM (inactive)	> 100 µM (inactive)	> 100	> 100 µM (inactive)	> 100 µM (inactive)	–	> 100 µM (inactive)	> 100 µM (inactive)	> 100 µM (inactive)	80.5 µM (inactive)	> 100 µM (inactive)	> 100 µM (inactive)

— ChEMBL document CHEMBL1201862, “PubChem BioAssay data set” (2004)
